# Laboratory results reported in patent US20250115597A1, “TYK2 INHIBITORS AND COMPOSITIONS AND METHODS THEREOF” (LYNK PHARMACEUTICALS CO. LTD., priority 2021, published 2025).
# Target: T1, Ba/F3-FL-TYK2-P760L cells (Homo sapiens, UniProt P29597, P760L, cells depend on it)
# T1 construct: BaF3-FL-T2P760L (nM)
# Assay: Anti-proliferative assay, Ba/F3-FL-TYK2-P760L cells (Cell-Titer Glo)
# Type: cell-based
# Settings: 72 h, read-out: BaF3-FL-T2P760L IC50
# Procedure: Anti-Proliferative Assay Dimerization domain of Tel protein fused with JAK kinase domain was permanently transduced into Ba/F3 cells, whose proliferation is dependent on JAK activity in the absence of IL-3 induction. These engineered Ba/F3 cells (Ba/F3-FL-TYK2-[…], Ba/F3-TEL-TYK2 and Ba/F3-TEL-JAK2) were used to monitor JAK inhibitory activities of the compounds in the cellular. […] Cells were seeded at 2000/well of white flat bottom 96-well plates. The well containing medium only was used as background control. After 24 h growth, cells were treated with compounds. The test compounds were dissolved in DMSO to a stock concentration of 20 mM. 3-fold serially diluted compounds for 9 concentrations with top concentration of 20 μM was added into the each well. […] The cells continued to grow at 37° C. in 5% CO2 for 72 h after compound treatment. The viability was measured by cellular ATP determination using the Cell-Titer Glo luciferase reagent (Promega). The Luminescence value was recorded by a multi-label reader Envision (PerkinElmer).
# T1 sequence (P29597 whole entry P760L): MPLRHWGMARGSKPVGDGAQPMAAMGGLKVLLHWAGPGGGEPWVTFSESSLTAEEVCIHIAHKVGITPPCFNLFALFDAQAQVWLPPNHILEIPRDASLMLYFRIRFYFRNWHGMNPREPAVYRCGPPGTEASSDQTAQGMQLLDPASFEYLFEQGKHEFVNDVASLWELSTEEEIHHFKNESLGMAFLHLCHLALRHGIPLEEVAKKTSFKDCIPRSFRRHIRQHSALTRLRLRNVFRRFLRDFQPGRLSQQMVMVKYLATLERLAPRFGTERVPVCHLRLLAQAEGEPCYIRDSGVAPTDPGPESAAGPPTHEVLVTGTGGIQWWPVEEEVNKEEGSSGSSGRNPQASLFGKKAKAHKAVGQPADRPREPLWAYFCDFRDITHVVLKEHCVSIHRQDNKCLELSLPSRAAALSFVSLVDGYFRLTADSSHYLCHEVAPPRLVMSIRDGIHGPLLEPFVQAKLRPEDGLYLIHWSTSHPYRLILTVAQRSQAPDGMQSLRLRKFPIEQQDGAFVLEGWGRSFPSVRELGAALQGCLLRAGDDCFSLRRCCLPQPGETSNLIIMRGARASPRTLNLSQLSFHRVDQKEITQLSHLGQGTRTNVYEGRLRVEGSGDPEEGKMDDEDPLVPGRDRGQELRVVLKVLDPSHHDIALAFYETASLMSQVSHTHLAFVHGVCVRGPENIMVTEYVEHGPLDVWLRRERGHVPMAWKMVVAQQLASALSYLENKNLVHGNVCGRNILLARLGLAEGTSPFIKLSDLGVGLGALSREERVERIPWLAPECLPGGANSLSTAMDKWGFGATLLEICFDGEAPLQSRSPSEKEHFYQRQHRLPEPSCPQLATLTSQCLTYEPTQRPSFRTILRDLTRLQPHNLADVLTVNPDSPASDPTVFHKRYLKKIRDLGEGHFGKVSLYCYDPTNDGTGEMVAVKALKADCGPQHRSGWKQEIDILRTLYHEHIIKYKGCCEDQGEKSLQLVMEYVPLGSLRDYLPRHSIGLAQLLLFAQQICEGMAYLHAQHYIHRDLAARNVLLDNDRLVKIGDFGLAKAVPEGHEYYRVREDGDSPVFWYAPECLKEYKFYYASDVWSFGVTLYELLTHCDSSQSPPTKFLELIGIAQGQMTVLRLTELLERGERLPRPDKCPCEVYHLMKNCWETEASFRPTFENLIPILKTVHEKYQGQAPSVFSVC
row,Structure (SMILES),GI50 [nM]
1,"COC(=O)c1cnc(NC(=O)C2CC2)cc1Nc1cnc2ccn(CC(F)(F)F)c(=O)n12 [Example 48, Methyl 6-(cyclopropanecarboxamido)-4-((5-oxo-6-(2,2,2-trifluoroethyl)-5,6-dihydroimidazo[1,2-c]pyrimidin-3-yl)amino)nicotinate]",3810
2,"CNC(=O)c1cnc(NC(=O)C2CC2)cc1Nc1cn(C)c2ccn(C(C)C)c(=O)c12 [Example 50, 6-(Cyclopropanecarboxamido)-4-((5-isopropyl-1-methyl-4-oxo-4,5-dihydro-1H-pyrrolo[3,2-c]pyridin-3-yl)amino)-N-methylnicotinamide]",371
3,"[2H]C([2H])([2H])NC(=O)c1cnc(NC(=O)C2CC2)cc1Nc1nn(CCOC)c2ccn(CC(F)(F)F)c(=O)c12 [Example 54, 6-(Cyclopropanecarboxamido)-4-((1-(2-methoxyethyl)-4-oxo-5-(2,2,2-trifluoroethyl)-4,5-dihydro-1H-pyrazolo[4,3-c]pyridin-3-yl)amino)-N-(methyl-d3)nicotinamide]",1090
4,"CNC(=O)c1cnc(Nc2ccc(F)cn2)cc1Nc1cccc(C(F)(F)F)c1OC [Example 55, 6-((5-Fluoropyridin-2-yl)amino)-4-((2-methoxy-3-(trifluoromethyl)phenyl)amino)-N-methylnicotinamide]",627
5,"[2H]C([2H])([2H])NC(=O)c1cnc(Nc2cc(C)c(F)cn2)nc1Nc1cccc(-c2ncn(C)n2)c1OC [Example 59, 2-((5-Fluoro-4-methylpyridin-2-yl)amino)-4-((2-methoxy-3-(1-methyl-1H-1,2,4-triazol-3-yl)phenyl)amino)-N-(methyl-d3)pyrimidine-5-carboxamide]",1930
6,"[2H]C([2H])([2H])NC(=O)c1cnc(Nc2ccn(C)n2)nc1Nc1cccc(-c2ncn(C)n2)c1OC [Example 60, 4-((2-Methoxy-3-(1-methyl-1H-1,2,4-triazol-3-yl)phenyl)amino)-N-(methyl-d3)-2-((1-methyl-1H-pyrazol-3-yl)amino)pyrimidine-5-carboxamide]",1410
7,"[2H]C([2H])([2H])NC(=O)c1cnc(Nc2ccc(C)nn2)nc1Nc1cccc(-c2ncn(C)n2)c1OC [Example 61, 4-((2-Methoxy-3-(1-methyl-1H-1,2,4-triazol-3-yl)phenyl)amino)-N-(methyl-d3)-2-((6-methylpyridazin-3-yl)amino)pyrimidine-5-carboxamide]",3510
8,"[2H]C([2H])([2H])NC(=O)c1cnc(Nc2cccc(C(F)(F)F)n2)nc1Nc1cccc(-c2ncn(C)n2)c1OC [Example 62, 4-((2-Methoxy-3-(1-methyl-1H-1,2,4-triazol-3-yl)phenyl)amino)-N-(methyl-d3)-2-((6-(trifluoromethyl)pyridin-2-yl)amino)pyrimidine-5-carboxamide]",1180
9,"[2H]C([2H])([2H])NC(=O)c1cnc(Nc2ccc(F)cc2F)nc1Nc1cccc(-c2ncn(C)n2)c1OC [Example 63, 2-((2,4-Difluorophenyl)amino)-4-((2-methoxy-3-(1-methyl-1H-1,2,4-triazol-3-yl)phenyl)amino)-N-(methyl-d3)pyrimidine-5-carboxamide]",796
10,"CNC(=O)c1cnc(NC(=O)C2CC2(F)F)nc1Nc1cccc(-c2ncn(C)n2)c1OC (stereo not drawn) [Example 64, 2-(2,2-Difluorocyclopropane-1-carboxamido)-4-((2-methoxy-3-(1-methyl-1H-1,2,4-triazol-3-yl)phenyl)amino)-N-methylpyrimidine-5-carboxamide]",2040
11,"[2H]C([2H])([2H])NC(=O)c1nnc2cc1Nc1cc(cc(-c3ccc(F)cc3)c1OC)COCc1nc(ccc1F)N2 [Example 73, 18-Fluoro-11-(4-fluorophenyl)-10-methoxy-N-(methyl-d3)-15-oxa-2,4,5,8,21-pentaazatetracyclo[15.3.1.1^{3,7}.1^{9,13}]tricosa-1(20),3,5,7(23),9(22),10,12,17(21),18-nonaene-6-carboxamide]",7980
12,"[2H]C([2H])([2H])NC(=O)c1cnc2cc1Nc1cc(cc(-c3ncn(C(C)C)n3)c1OC)COCc1cccc(n1)N2 [Example 84, 10-Methoxy-N-(methyl-d3)-11-[1-(propan-2-yl)-1H-1,2,4-triazol-3-yl]-15-oxa-2,4,8,21-tetraazatetracyclo[15.3.1.1^{3,7}.1^{9,13}]tricosa-1(21),3,5,7(23),9(22),10,12,17,19-nonaene-6-carboxamide]",676
13,"[2H]C([2H])([2H])NC(=O)c1nnc2cc1Nc1cc(cc(-c3ncn(C)n3)c1OC)CNCc1nc(ccc1F)N2 [Example 87, 18-Fluoro-10-methoxy-N-(methyl-d3)-11-(1-methyl-1H-1,2,4-triazol-3-yl)-2,4,5,8,15,21-hexaazatetracyclo[15.3.1.1^{3,7}.1^{9,13}]tricosa-1(20),3,5,7(23),9(22),10,12,17(21),18-nonaene-6-carboxamide]",584
14,"[2H]C([2H])([2H])NC(=O)c1cnc(NC(=O)[C@H]2C[C@H]2F)cc1Nc1cn(C)c2ccn(CC)c(=O)c12 [Example 101, 4-[(5-Ethyl-1-methyl-4-oxo-pyrrolo[3,2-c]pyridin-3-yl)amino]-6-[[(1R,2R)-2-fluorocyclopropanecarbonyl]amino]-N-(methyl-d3)pyridine-3-carboxamide]",809

# These reach a lower GI50. Values come first.
row,GI50 [nM],Structure (SMILES)
1,80.2,"CCCn1ncc2ccc(Nc3cc(NC(=O)C4CC4)ncc3C(=O)NC)c(OC)c21 [Example 51, 6-(Cyclopropanecarboxamido)-4-((7-methoxy-1-propyl-1H-indazol-6-yl)amino)-N-methylnicotinamide]"
2,285,"CNC(=O)c1cnc(Nc2ccc(F)cn2)cc1Nc1cccc(C2(F)CC2)c1OC [Example 56, 4-((3-(1-Fluorocyclopropyl)-2-methoxyphenyl)amino)-6-((5-fluoropyridin-2-yl)amino)-N-methylnicotinamide]"
3,213,"[2H]C([2H])([2H])NC(=O)c1nnc2cc1Nc1cc(cc(-c3ncc(F)cn3)c1OC)COCc1nc(ccc1F)N2 [Example 80, 18-Fluoro-11-(5-fluoropyrimidin-2-yl)-10-methoxy-N-(methyl-d3)-15-oxa-2,4,5,8,21-pentaazatetracyclo[15.3.1.1^{3,7}.1^{9,13}]tricosa-1(20),3,5,7(23),9(22),10,12,17(21),18-nonaene-6-carboxamide]"
4,330,"[2H]C([2H])([2H])NC(=O)c1cnc2nc1Nc1cc(cc(-c3ncn(C)n3)c1OC)COCc1cc(F)cc(n1)N2 [Example 81, 19-Fluoro-10-methoxy-N-(methyl-d3)-11-(1-methyl-1H-1,2,4-triazol-3-yl)-15-oxa-2,4,8,21,23-pentaazatetracyclo[15.3.1.1^{3,7}.1^{9,13}]tricosa-1(21),3,5,7(23),9(22),10,12,17,19-nonaene-6-carboxamide]"
5,46.9,"[2H]C([2H])([2H])NC(=O)c1nnc2cc1Nc1cc(cc(-c3ncn(C4CC4)n3)c1OC)COCc1cc(F)cc(n1)N2 [Example 88, 11-(1-Cyclopropyl-1H-1,2,4-triazol-3-yl)-19-fluoro-10-methoxy-N-(methyl-d3)-15-oxa-2,4,5,8,21-pentaazatetracyclo[15.3.1.1^{3,7}.1^{9,13}]tricosa-1(21),3,5,7(23),9(22),10,12,17,19-nonaene-6-carboxamide]"
6,32.2,"[2H]C([2H])([2H])NC(=O)c1cnc2cc1Nc1cc(cc(-c3ncn(C4CC4)n3)c1OC)COCc1cc(F)cc(n1)N2 [Example 89, 11-(1-Cyclopropyl-1H-1,2,4-triazol-3-yl)-19-fluoro-10-methoxy-N-(methyl-d3)-15-oxa-2,4,8,21-tetraazatetracyclo[15.3.1.1^{3,7}.1^{9,13}]tricosa-1(21),3,5,7(23),9(22),10,12,17,19-nonaene-6-carboxamide]"
7,126,"[2H]C([2H])([2H])NC(=O)c1nnc2cc1Nc1cc(cc(-c3nnc(C)o3)c1OC)COCc1nc(ccc1F)N2 [Example 90, 18-Fluoro-10-methoxy-N-(methyl-d3)-11-(5-methyl-1,3,4-oxadiazol-2-yl)-15-oxa-2,4,5,8,21-pentaazatetracyclo[15.3.1.1^{3,7}.1^{9,13}]tricosa-1(20),3,5,7(23),9(22),10,12,17(21),18-nonaene-6-carboxamide]"
8,300,"[2H]C([2H])([2H])NC(=O)c1nnc2cc1Nc1cc(cc(-c3ncn(C)n3)c1OC)CCC(O)c1nc(ccc1F)N2 (stereo not drawn) [Example 92, 18-Fluoro-16-hydroxy-10-methoxy-N-(methyl-d3)-11-(1-methyl-1H-1,2,4-triazol-3-yl)-2,4,5,8,21-pentaazatetracyclo[15.3.1.1^{3,7}.1^{9,13}]tricosa-1(20),3,5,7(23),9(22),10,12,17(21),18-nonaene-6-carboxamide]"
9,97,"[2H]C([2H])([2H])NC(=O)c1nnc2cc1Nc1cc(cc(-c3nc(C)co3)c1OC)COCc1nc(ccc1F)N2 [Example 93, 18-Fluoro-10-methoxy-N-(methyl-d3)-11-(4-methyl-1,3-oxazol-2-yl)-15-oxa-2,4,5,8,21-pentaazatetracyclo[15.3.1.1^{3,7}.1^{9,13}]tricosa-1(20),3,5,7(23),9(22),10,12,17(21),18-nonaene-6-carboxamide]"
10,293,"[2H]C([2H])([2H])NC(=O)c1nnc2cc1Nc1cc(cc(-c3ccn(C4CC4)n3)c1OC)COCc1cc(F)cc(n1)N2 [Example 94, 11-(1-Cyclopropyl-1H-pyrazol-3-yl)-19-fluoro-10-methoxy-N-(methyl-d3)-15-oxa-2,4,5,8,21-pentaazatetracyclo[15.3.1.1^{3,7}.1^{9,13}]tricosa-1(21),3,5,7(23),9(22),10,12,17,19-nonaene-6-carboxamide]"
